Legend:
[1] = molecular target: Beta-secretase 1 (Homo sapiens) (UniProt P56817); assay: Inhibition of human recombinant BACE-1 expressed in baculovirus expression system at 5 uM using panvera peptide as substrate measured after 1 hr by FRET assay relative to control
[2] = in vitro; settings: PAMPA
Description: Permeability of the compound measured after compound dilution in PBS/EtOH buffer (70:30) by PAMPA-BBB assay

[3] = molecular target: Microtubule-associated protein tau (Homo sapiens) (UniProt P10636); assay: Inhibition of tau aggregation (unknown origin) expressed in Escherichia coli BL21 (DE3) at 10 uM by Thioflavin S steady state fluorescence assay relative to control
[4] = molecular target: T1, Cholinesterase (Homo sapiens, UniProt P06276); assay: Potency index, ratio of IC50 for 6-cholorotacrine to compound IC50 for Inhibition of human serum BChE
[5] = molecular target: Amyloid-beta precursor protein (Homo sapiens) (UniProt P05067); assay: Inhibition of human recombinant amyloid beta (1 to 42) aggregation expressed in Escherichia coli BL21 (DE3) at 10 uM by Thioflavin S steady state fluorescence assay relative to control
[6] = molecular target: T2, Acetylcholinesterase (Homo sapiens, UniProt P22303); assay: Inhibition of human recombinant AChE expressed in HEK293 cells using acetylthiocholine iodide as substrate preincubated for 20 mins followed by substrate addition by spectrophotometry analysis
[7] = molecular target: T1, Cholinesterase; assay: Inhibition of human serum BChE using butyrylthiocholine iodide as substrate preincubated for 20 mins followed by substrate addition by spectrophotometry analysis
[8] = molecular target: Glutamate NMDA receptor; assay: Antagonist activity at NMDA receptor in rat CGN cells assessed as […] in intracellular calcium level incubated for 30 mins in presence of Fura-2AM followed by NMDA/glycine stimulation by fluorescence spectrometer analysis; type: cell-based
[9] = molecular target: T2, Acetylcholinesterase; assay: Potency index, ratio of IC50 for 6-cholorotacrine to compound IC50 for Inhibition of human recombinant AChE expressed in HEK293 cells; type: cell-based
[10] = molecular target: Glutamate NMDA receptor; GRIN1/GRIN2B (Homo sapiens, UniProt Q05586+Q13224); assay: Inhibition of recombinant GluN1/GluN2B receptor (unknown origin) expressed in HEK293 cells by patch-clamp method; type: cell-based
[11] = molecular target: T3, Glutamate NMDA receptor (Rattus norvegicus) (UniProt P35439+Q00959+Q00960+Q00961+Q62645+Q8VHN2+Q9R1M7); assay: Potency index, ratio of memantine IC50 to compound IC50 for antagonist activity at NMDA receptor in rat CGN cells; type: cell-based
[12] = molecular target: T3, Glutamate NMDA receptor (Rattus norvegicus); assay: Potency index, ratio of benzoho-moadamantanamine IC50 to compound IC50 for antagonist activity at NMDA receptor in rat CGN cells; type: cell-based

Sequence of Beta-secretase 1 (Homo sapiens) (P56817 whole entry): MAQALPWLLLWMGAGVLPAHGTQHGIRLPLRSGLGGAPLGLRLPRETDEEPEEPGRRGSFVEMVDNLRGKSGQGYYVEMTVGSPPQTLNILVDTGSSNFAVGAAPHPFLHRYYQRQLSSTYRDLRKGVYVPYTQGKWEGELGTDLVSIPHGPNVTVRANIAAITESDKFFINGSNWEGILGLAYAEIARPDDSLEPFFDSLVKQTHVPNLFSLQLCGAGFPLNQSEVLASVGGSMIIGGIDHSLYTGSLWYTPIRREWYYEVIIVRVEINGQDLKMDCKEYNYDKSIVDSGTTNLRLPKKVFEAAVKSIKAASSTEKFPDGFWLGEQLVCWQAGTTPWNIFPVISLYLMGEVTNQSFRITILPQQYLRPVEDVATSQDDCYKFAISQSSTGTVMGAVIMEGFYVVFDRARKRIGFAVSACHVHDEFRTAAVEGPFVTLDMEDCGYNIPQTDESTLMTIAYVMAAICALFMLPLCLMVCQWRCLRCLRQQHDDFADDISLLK
Sequence of Microtubule-associated protein tau (Homo sapiens) (P10636 whole entry): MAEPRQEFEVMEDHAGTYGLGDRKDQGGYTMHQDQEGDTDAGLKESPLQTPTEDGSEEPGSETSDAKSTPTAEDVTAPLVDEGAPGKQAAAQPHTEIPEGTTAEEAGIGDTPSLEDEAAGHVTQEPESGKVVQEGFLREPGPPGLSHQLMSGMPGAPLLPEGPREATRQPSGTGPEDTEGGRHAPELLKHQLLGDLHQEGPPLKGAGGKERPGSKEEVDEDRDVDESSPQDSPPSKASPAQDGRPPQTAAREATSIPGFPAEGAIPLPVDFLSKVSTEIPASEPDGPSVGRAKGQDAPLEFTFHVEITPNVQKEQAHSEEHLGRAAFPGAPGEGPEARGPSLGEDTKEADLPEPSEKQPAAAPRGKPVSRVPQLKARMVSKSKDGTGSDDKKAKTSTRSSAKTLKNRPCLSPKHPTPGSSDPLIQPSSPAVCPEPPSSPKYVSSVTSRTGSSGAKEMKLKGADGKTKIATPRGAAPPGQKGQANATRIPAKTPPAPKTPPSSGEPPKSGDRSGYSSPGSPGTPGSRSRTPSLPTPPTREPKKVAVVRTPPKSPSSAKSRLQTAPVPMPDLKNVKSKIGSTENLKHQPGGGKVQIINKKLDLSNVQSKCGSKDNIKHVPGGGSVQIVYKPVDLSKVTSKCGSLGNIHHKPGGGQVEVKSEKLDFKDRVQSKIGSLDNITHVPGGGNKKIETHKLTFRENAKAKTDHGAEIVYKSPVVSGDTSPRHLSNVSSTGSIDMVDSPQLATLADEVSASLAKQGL
T1 sequence (P06276 whole entry): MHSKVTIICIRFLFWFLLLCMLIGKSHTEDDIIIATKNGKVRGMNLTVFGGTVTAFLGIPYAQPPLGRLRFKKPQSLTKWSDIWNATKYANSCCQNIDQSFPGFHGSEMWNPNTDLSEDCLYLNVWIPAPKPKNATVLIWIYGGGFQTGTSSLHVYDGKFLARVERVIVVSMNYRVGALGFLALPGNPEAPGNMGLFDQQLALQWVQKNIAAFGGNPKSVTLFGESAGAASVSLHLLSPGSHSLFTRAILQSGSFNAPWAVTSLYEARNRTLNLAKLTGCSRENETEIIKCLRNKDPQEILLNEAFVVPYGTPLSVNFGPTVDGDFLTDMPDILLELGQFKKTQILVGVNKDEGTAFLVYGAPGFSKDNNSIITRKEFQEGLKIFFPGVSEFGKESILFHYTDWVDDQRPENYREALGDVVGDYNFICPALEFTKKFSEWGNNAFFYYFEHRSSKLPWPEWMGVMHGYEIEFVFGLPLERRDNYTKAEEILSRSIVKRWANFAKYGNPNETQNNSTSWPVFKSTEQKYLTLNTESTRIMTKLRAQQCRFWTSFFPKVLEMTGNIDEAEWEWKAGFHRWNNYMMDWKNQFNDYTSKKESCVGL
Sequence of Amyloid-beta precursor protein (Homo sapiens) (P05067 whole entry): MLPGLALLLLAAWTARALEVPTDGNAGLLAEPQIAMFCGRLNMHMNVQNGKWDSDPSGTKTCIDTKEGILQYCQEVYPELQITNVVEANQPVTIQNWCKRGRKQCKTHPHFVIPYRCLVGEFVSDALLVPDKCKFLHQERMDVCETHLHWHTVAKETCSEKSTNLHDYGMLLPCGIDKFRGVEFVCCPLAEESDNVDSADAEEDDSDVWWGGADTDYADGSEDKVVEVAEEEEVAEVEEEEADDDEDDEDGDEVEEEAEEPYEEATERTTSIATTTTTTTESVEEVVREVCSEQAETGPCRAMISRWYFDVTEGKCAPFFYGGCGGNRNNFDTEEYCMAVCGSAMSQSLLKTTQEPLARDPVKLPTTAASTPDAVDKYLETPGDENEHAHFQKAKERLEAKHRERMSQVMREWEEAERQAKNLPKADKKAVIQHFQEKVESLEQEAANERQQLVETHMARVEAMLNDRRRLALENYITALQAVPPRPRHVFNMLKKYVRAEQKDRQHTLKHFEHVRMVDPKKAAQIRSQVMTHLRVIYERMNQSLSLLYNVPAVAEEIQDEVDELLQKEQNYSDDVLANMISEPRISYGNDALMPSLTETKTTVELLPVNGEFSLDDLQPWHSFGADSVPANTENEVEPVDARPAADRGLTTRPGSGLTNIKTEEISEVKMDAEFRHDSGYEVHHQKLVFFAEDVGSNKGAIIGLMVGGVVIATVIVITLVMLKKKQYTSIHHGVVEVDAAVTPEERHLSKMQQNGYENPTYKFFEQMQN
T2 sequence (P22303 whole entry): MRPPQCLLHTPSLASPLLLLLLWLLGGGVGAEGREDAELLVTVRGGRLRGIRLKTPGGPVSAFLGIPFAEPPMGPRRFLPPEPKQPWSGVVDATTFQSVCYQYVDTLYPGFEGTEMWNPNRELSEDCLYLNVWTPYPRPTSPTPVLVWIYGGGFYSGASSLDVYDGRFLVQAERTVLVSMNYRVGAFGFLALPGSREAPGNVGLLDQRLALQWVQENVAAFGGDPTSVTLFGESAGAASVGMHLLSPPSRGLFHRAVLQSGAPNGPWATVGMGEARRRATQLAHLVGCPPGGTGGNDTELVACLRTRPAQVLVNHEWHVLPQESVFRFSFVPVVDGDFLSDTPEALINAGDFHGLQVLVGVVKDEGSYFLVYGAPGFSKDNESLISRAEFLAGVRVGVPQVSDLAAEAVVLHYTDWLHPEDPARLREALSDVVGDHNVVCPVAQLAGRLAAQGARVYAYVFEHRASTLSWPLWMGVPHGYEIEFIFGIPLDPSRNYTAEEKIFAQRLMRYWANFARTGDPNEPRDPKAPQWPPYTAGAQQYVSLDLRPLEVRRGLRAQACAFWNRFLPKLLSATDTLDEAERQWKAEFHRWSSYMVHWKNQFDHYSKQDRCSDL
Sequence of Glutamate NMDA receptor; GRIN1/GRIN2B (Q13224 whole entry, other chains not shown): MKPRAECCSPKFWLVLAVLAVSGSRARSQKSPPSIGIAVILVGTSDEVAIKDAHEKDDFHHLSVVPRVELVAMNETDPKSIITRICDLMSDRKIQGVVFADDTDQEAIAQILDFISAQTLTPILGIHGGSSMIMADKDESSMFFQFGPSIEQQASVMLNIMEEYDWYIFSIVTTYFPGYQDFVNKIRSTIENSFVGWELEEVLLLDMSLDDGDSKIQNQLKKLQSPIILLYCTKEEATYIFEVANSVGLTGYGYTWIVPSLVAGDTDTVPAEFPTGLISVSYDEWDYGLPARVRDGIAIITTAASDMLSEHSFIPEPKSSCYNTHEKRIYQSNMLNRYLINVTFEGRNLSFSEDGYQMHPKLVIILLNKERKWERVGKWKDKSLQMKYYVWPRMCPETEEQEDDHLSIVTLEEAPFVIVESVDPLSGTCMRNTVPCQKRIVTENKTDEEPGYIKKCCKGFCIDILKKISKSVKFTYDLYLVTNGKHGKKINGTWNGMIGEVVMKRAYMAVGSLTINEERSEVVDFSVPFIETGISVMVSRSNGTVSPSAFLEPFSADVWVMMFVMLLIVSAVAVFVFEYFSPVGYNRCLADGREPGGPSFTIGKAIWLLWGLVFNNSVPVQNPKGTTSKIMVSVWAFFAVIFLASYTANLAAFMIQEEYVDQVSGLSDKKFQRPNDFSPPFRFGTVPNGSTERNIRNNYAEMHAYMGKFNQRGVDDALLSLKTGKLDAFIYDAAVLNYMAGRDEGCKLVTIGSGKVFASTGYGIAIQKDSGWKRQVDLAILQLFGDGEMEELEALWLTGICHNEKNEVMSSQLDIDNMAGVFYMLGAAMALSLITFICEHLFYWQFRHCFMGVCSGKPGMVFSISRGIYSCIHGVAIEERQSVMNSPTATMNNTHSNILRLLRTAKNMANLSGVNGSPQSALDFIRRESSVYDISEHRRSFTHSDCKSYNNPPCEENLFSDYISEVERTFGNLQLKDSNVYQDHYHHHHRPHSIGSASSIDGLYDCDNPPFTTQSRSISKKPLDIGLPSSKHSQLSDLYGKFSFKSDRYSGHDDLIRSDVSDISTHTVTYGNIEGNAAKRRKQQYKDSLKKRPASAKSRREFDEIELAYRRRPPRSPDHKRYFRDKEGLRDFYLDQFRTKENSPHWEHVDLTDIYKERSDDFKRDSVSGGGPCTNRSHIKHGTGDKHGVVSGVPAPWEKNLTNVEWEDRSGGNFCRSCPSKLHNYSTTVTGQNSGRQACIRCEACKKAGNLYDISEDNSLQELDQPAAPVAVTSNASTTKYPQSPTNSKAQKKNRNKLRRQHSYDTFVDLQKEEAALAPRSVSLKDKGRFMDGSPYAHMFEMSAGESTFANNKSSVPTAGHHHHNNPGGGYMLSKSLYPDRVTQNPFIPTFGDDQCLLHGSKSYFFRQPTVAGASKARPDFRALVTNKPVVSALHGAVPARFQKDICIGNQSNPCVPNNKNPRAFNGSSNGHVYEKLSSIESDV

Structure (SMILES) | inhibition [1] | Papp [2] | inhibition [3] | Ratio IC50 [4] | inhibition [5] | IC50 [6] | IC50 [7] | IC50 [8] | Ratio IC50 [9] | Ki [10] | Ratio IC50 [11] | Ratio IC50 [12]
Nc1c2c(nc3cc(Cl)ccc13)CCCC2 | 18% | 20 ×10⁻⁶ cm/s | < 5% |  |  |  |  |  |  |  |  | 
NC12CC3CC(F)(CC(C1)c1cc(NC(=O)CCCCNc4c5c(nc6cc(Cl)ccc46)CCCC5)ccc13)C2 (configuration not stated) | 18% | 3.1 ×10⁻⁶ cm/s | 22.9% | 24 | < 5% | 2.5 nM | 20 nM | 3400 nM | 44 |  |  | 
COc1ccc2nc3c(c(NCCCCCNC(=S)NC45CC6CC(CC(C6)C4)C5)c2c1)CCCC3 |  |  |  |  |  |  |  |  |  | 1800 nM |  | 
FC12CC3CC(NCCCCCNc4c5c(nc6cc(Cl)ccc46)CCCC5)(CC(C1)c1ccccc13)C2 | 18% | 6.5 ×10⁻⁶ cm/s | 20.7% | 2 | 12.3% | 1.4 nM | 200 nM | 900 nM | 6 to 44 |  | 1.7 | 2
FC12CC3CC(NCCCCNc4c5c(nc6cc(Cl)ccc46)CCCC5)(CC(C1)c1ccccc13)C2 | 18% | 6.3 ×10⁻⁶ cm/s | 22% |  | 8.4% | 2 nM | 1100 nM | 3300 nM | 6 to 44 |  |  | 
NC12CC3CC(F)(CC(C1)c1cc(NC(=O)CCCNc4c5c(nc6cc(Cl)ccc46)CCCC5)ccc13)C2 (configuration not stated) | 18% | 2.7 ×10⁻⁶ cm/s | 6.9% |  | < 5% | 0.3 nM | 500 nM | 1200 nM | 6 to 44 |  | 1.7 | 2
O=C(CCCCNc1c2c(nc3cc(Cl)ccc13)CCCC2)NC12CC3CC(F)(CC(C1)c1ccccc13)C2 | 18% | 9 ×10⁻⁶ cm/s | 12.6% |  | 9% | 1.3 nM | 2400 nM | 8300 nM | 6 to 44 |  |  | 
O=C(CCCNc1c2c(nc3cc(Cl)ccc13)CCCC2)NC12CC3CC(F)(CC(C1)c1ccccc13)C2 | 18% | 9.8 ×10⁻⁶ cm/s | 10.2% |  | < 5% | 1.4 nM | 2300 nM | 7000 nM | 6 to 44 |  |  | 
CC12CC3CC(C)(C1)CC(N)(C3)C2 | 18% |  |  |  |  |  |  |  |  |  |  | 
NC12CC3CC(F)(CC(C1)c1ccccc13)C2 | 18% |  |  |  |  |  |  | 1900 nM |  |  | 1.7 | 

Source: ChEMBL document CHEMBL4304786, “A novel class of multitarget anti-Alzheimer benzohomoadamantane‒chlorotacrine hybrids modulating cholinesterases and glutamate NMDA receptors” (Eur J Med Chem, 2019)
